Where a name gives a salt, the structure may show the parent alone.
Columns and labels:
human EP2 = target: T1, human EP2 (Homo sapiens, UniProt P43116); assay: In vitro binding to human EP2 ([3H]-PGE2 displacement, HEK293 membranes); details: [3H]-PGE2 binding, hEP2 membranes from transiently transfected HEK293 cells
T1 construct: expressed in transfected cells; host or cells: HEK293 (transient), membranes
Protocol: (§1) hEP1 and hEP4 membranes are prepared from recombinant HEK293 cells stably expressing the human EP1 (Genbank accession number AY275470) or EP4 (Genbank accession number AY429109) receptors. hEP2 and hEP3 membranes are prepared from HEK293 cells transiently transfected with EP2 (Genbank accession number AY275471) or EP3 (isoform VI: Genbank accession number AY429108) receptor plasmids. Frozen cell pellets are homogenized in homogenization buffer using a Teflon/glass homogenizer. Membrane protein is aliquoted and quick frozen on dry ice prior to storage at −80° C. […]
(§2) Kd values for [3H]-PGE2 binding to each receptor are determined by saturation binding studies or homologous competition. […] Nonspecific binding is calculated by comparing binding in the presence and absence of 2 μM of PGE2. The membranes are harvested by filtration (TomTek harvester), washed 4 times with cold buffer (10 mM MES pH 6.0 with KOH, 10 mM MgCl2), dried in a 60° C. oven, and the radioactivity is quantified as counts per minute (CPM) using a TopCount® detector. Percent specific binding is calculated as the percent of the binding in the absence of any inhibitor, corrected for non-specific binding in the presence of 2 μM of PGE2. […]

human EP1 = target: T2, human EP1 (Homo sapiens, UniProt P34995); assay: In vitro binding to human EP1 ([3H]-PGE2 displacement, HEK293 membranes); details: [3H]-PGE2 binding, hEP1 membranes from recombinant HEK293 cells
T2 construct: expressed in transfected cells
T2 sequence (P34995 1-402): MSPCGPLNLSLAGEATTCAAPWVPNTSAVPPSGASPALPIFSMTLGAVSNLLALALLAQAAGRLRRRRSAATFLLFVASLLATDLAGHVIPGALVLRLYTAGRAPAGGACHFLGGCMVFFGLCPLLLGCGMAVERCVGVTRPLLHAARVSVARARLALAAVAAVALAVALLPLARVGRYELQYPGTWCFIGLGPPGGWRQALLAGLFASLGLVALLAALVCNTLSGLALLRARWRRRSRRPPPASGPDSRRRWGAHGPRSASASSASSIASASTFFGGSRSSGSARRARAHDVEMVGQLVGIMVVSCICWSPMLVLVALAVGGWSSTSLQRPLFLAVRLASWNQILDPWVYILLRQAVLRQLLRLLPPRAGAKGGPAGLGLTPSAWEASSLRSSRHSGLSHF
Protocol: as §1, §2

rat EP4 = target: T3, rat EP4 (Rattus norvegicus, UniProt P43114); assay: In vitro rat EP4 functional antagonist activity (cAMP HTRF); type: cell-based; details: HEK293 cells expressing rat EP4; PGE2 at EC80; n=1; read-out: IC50 measured at rat EP4 (cAMP)
T3 construct: expressed in transfected cells
Protocol: Rat EP4 cDNA (Genebank Accession# NM_03276) is cloned into pcDNA 3.1 vector and subsequently transfected in HEK293 cells for receptor expression. Rat EP4 stable clone is scaled up and then frozen down as cell bank for future compounds screening. To test EP4 antagonist compounds in rEP4 cells, thaw the frozen cells and then resuspend cells in cAMP assay buffer. The cAMP buffer is made by HBSS without Phenol Red (Hyclone, SH30268) supplemented with 20 mM HEPES (Hyclone, SH30237), 0.1% BSA (Gibco, 15260) and 125 μM IBMX (Sigma, 15879) (see e.g., Murase, A., et al., Life Sciences, 82:226-232 (2008)). The cells are plated into 96-well half area flat-bottom polystyrene black plates (Costar 3694). Compounds are serial diluted with DMSO to give 10-point concentration response curves. Then diluted compounds are added into cAMP assay buffer which contains PGE2 (Cayman 14010, in a concentration predetermined to produce an EC80) at ratio of DMSO/buffer at 1/100. The cells are treated with compounds in the presence of PGE2 (EC80 concentration) for 30 minutes at room temperature. The cAMP levels generated from the cells are quantified by a cAMP HTRF assay kit (Cisbio 62AM4PEC). The plates are read on an EnVision plate reader using HTRF optimized protocol (PerkinElmer). IC50s are calculated using Graphpad Prism (v. 4) nonlinear regression, sigmoidal dose response curve fitting.

human EP3 = target: T4, human EP3 (Homo sapiens, UniProt P43115); assay: In vitro binding to human EP3 ([3H]-PGE2 displacement, HEK293 membranes); details: [3H]-PGE2 binding, hEP3 (isoform VI) membranes from transiently transfected HEK293 cells
T4 construct: expressed in transfected cells; host or cells: HEK293 (transient), membranes
T4 sequence (P43115 1-374 isoform P43115-4): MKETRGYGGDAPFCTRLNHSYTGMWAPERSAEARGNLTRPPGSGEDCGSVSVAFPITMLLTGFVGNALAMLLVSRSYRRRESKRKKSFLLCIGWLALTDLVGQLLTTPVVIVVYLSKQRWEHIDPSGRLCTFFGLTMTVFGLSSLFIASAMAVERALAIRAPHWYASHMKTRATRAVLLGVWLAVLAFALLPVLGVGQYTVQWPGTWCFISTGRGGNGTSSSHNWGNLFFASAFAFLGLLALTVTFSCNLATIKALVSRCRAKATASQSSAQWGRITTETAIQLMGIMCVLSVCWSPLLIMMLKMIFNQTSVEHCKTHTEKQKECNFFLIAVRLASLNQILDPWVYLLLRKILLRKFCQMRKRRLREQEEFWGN
Protocol: as §1, §2

human EP4 [1] = target: T5, human EP4 (Homo sapiens, UniProt P35408); assay: In vitro binding to human EP4 ([3H]-PGE2 displacement, HEK293 membranes); set-up: expressed in transfected cells; details: [3H]-PGE2 binding, hEP4 membranes from recombinant HEK293 cells
Protocol: as §1, §2

human EP4 [2] = target: T5, human EP4; assay: In vitro antagonist activity in human whole blood (reversal of PGE2 inhibition of LPS-induced TNFα production); type: cell-based; set-up: Blood is collected from normal volunteer donors; from tissue; host or cells: human whole blood from volunteer donors; details: LPS 10 μg/mL with 10 nM PGE2, geometric mean ± standard deviation, read-out: IC50 in human blood TNFα induction assay
Source text: The inhibitory effects of PGE2 on LPS-induced TNFα production from macrophages/monocytes are believed to be mediated by EP4 receptors (See Murase, A., et al., Life Sciences, 82:226-232 (2008)). The ability of the compound of Example 1 to reverse the inhibitory effect of PGE2 on LPS-induced TNFα production in human whole blood is an indicia of functional activity.
Blood is collected from normal volunteer donors into sodium heparin vacutainer tubes. Donors have not taken NSAIDs or celecoxib within 48 hours or glucocorticoids within two weeks prior to the donation. All tubes/donor are pooled into 50 mL Falcon conical centrifuge tubes and 98 μL/well is distributed into 96-well tissue culture plates (Falcon 3072). […] TNFα levels in 2 μL plasma are quantified by a commercially available enzyme immunoassay (R&D Systems DY210), using Immulon 4 HBX plates (Thermo 3855) and 3,3′,5,5′ tetramethylbiphenyl-4,4′-diamine substrate (KPL 50-76-03). The plates are read at A450-A650 on a plate reader (Molecular Devices Versamax) using SOFTmaxPRO (v. 4.3.1) software. IC50s are calculated using Graphpad Prism (v. 4) nonlinear regression, with sigmoidal dose response curve fitting. Results are expressed as the geometric mean±standard deviation; n=number of independent determinations.

human EP4 [3] = target: T5, human EP4; assay: In vitro human EP4 functional antagonist activity (inhibition of PGE2-stimulated cAMP production, HTRF); type: cell-based; set-up: expressed in transfected cells; details: HEK293 cells stably expressing human EP4; PGE2 at EC80 (0.188 nM); read-out: IC50 measured at human EP4 (inhibition of PGE2-stimulated cAMP production)
Protocol: Assays are conducted in recombinant HEK293 cells stably expressing human EP4 receptor. The cell lines are maintained by culturing in DMEM with high glucose and pyridoxine hydrochloride (Invitrogen) supplemented with 10% fetal bovine serum (FBS), 1 mM sodium pyruvate, 10 mM HEPES, 500 μg/mL geneticin and 2 mM L-glutamine. Confluent cultures are grown at 37° C. in an atmosphere containing 5% CO2. Cells are harvested using 0.25% Trypsin-EDTA, suspended in freeze media (FBS with 6% DMSO) at 10^7 cells/mL and aliquots are stored in liquid nitrogen. Just before assay, cells are thawed in DMEM, centrifuged, and resuspended in cAMP buffer.
The inhibition of PGE2-stimulated cAMP production by EP4 antagonists is measured using HTRF (Cisbio catalogue #62AM4PEB). An aliquot equivalent to 4000 cells is incubated with 50 μL cAMP assay buffer containing PGE2 in a concentration predetermined to produce an EC80 (0.188 nM PGE2 from Sigma, catalog # P5640-10 mg) and EP4 antagonists at room temperature for 20 minutes. cAMP assay buffer contains 500 mL HBSS, 0.1% BSA, 20 mM HEPES and 200 μM IBMX (Sigma I5879). […] The HTRF signal is detected using an EnVision plate reader (Perkin-Elmer) to calculate the ratio of fluorescence at 665 nm to that at 620 nm. […]

T5 sequence (P35408 whole entry): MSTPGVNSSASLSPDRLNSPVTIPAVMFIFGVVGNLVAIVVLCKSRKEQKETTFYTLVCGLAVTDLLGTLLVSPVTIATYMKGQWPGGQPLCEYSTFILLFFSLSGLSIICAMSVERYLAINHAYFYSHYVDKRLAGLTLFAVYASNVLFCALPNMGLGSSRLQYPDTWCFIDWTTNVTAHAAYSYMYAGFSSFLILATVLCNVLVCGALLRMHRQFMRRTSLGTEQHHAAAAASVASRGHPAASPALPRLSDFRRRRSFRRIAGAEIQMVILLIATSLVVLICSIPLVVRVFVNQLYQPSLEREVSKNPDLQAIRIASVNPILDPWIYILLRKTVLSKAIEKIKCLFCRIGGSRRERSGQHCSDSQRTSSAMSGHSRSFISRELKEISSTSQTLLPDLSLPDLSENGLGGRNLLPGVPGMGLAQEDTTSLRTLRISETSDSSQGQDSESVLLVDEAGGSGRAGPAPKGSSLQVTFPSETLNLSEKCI
T3 sequence (P43114 whole entry): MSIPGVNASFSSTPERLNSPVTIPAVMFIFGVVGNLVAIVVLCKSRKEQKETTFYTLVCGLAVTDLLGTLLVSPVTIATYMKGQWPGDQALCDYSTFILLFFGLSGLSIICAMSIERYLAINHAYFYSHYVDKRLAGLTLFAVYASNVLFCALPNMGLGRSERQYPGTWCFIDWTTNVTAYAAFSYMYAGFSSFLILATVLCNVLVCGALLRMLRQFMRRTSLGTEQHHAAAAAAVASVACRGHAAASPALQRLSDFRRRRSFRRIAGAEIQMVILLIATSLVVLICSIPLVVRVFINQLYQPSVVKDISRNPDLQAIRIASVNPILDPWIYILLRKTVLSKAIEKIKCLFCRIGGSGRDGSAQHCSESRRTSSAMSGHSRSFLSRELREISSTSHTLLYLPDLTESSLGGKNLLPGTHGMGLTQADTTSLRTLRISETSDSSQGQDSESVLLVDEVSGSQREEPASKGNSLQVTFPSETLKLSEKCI
T1 sequence (P43116 whole entry): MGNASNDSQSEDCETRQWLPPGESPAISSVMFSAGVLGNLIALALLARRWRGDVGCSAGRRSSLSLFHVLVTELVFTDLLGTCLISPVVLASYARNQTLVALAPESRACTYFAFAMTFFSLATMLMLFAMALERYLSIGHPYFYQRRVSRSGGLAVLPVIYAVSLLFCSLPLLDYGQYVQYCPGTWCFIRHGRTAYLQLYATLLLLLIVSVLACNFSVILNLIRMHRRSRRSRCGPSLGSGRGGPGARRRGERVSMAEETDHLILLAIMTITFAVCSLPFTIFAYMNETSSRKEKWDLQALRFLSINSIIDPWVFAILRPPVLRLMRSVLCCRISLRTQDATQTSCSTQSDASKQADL

| SMILES | Ki (human EP2) | Ki (human EP1) | IC50 (rat EP4) | Ki (human EP3) | Ki (human EP4 [1]) | IC50 (human EP4 [2]) | IC50 (human EP4 [3]) |
| --- | --- | --- | --- | --- | --- | --- | --- |
| C[C@H](NC(=O)[C@H]1Cc2ccccc2CN1CCOc1ccccc1)c1ccc(C(=O)O)cc1 [Example 1, 4-[(1S)-1-[[(3R)-2-(2-phenoxyethyl)-3,4-dihydro-1H-isoquinoline-3-carbonyl]amino]ethyl]benzoic acid] | 1.32 ± 1.78 µM | 7.92 ± 5.81 µM | 0.002 µM | > 14.8 µM | 0.000403 ± 0.000247 µM | 0.039 ± 0.021 µM | 0.000752 ± 0.000538 µM |
| C[C@H](NC(=O)[C@H]1Cc2ccccc2CN1CCOc1ccc(F)cc1)c1ccc(C(=O)O)cc1 [Example 2, 4-[(1S)-1-[[(3R)-2-(2-(4-fluorophenoxy)ethyl)-3,4-dihydro-1H-isoquinoline-3-carbonyl]amino]ethyl]benzoic acid hydrochloride] | 0.331 ± 0.072 µM | 4.65 µM | 0.0067 µM | > 14.6 µM | 0.00038 ± 0.000142 µM | 0.061 ± 0.055 µM | 0.00045 ± 0.000256 µM |
